Converted amounts (≈) assume the structure as drawn. Counter-ions that a name gives are not always drawn. Where a SMILES comes first, the peptide text is derived from it. [ ]: non-standard residue; d: D form. The star is where a group is joined. pNA = O=[N+]([O-])c1ccc(N*)cc1; Pip = O=C(O)[C@@H]1CCCCN1; Bz = O=C(c1ccccc1)*
Experiments:
Solubility in buffer = assay type: physicochemical; conditions: aqueous buffer; Buffer = Tris, pH 8.2, I 0.15
Text: | ^x Buffer = Tris, pH 8.2, I 0.15

Plasmin = Plasmin (Homo sapiens, UniProt P00747); assay: Relative reaction rate of enzymatic hydrolysis of chromogenic substrates, plasmin (p-nitroaniline release at 405 nm); assay type: biochemical; conditions: for Rel Reaction rates, Pl (Plasmin): relative to reference substrate XVIII
Text: (§1) The substrates prepared according to the examples above are used for determination of different enzymes according to the procedure outlined above.
(§2) The principle for the determination is based on the fact that the splitting product formed by enzymatic hydrolysis has a UV-spectrum which is essentially different from that of the substrate. Thus, e.g. all p-nitro anilide substrates according to the invention have absorption maxima around 310 nm with the molar extinction coefficient of about 12000. At 405 nm the absorption of these substrates has almost completely discontinued. p-Nitroaniline which has been split off from the substrate during the enzymatic hydrolysis has an absorption maximum at 380 nm and a molar extinction coefficient of 13200, which at 405 nm only has decreased to 9620. By spectrophotometric determination at 405 nm it is thus easy to follow the amount of p-nitroaniline formed which is proportional to the degree of the enzymatic hydrolysis which in its turn is determined by the active amount of enzyme.
(§3) In the table above the relative reaction rates for the different substrates are stated in relation to a reference substrate chosen for each enzyme. Symbols, reference substrates and their sensitivity for the respective enzymes are according to the following: […]

Kallikrein = assay: Relative reaction rate of enzymatic hydrolysis of chromogenic substrates, kallikrein (p-nitroaniline release at 405 nm); assay type: biochemical; conditions: for Rel Reaction rates, Kal (Kallikrein): relative to reference substrate XVI
Text: as §1, §2, §3

Urokinase = Urokinase (Homo sapiens, UniProt P00749); assay: Relative reaction rate of enzymatic hydrolysis of chromogenic substrates, urokinase (p-nitroaniline release at 405 nm); assay type: biochemical; conditions: for Rel Reaction rates, UK (Urokinase): relative to reference substrate XIV
Text: as §1, §2, §3

Thrombin = assay: Relative reaction rate of enzymatic hydrolysis of chromogenic substrates, thrombin (p-nitroaniline release at 405 nm); assay type: biochemical; conditions: for Rel Reaction rates, T (Thrombin): relative to reference substrate XIV
Text: as §1, §2, §3

Trypsin = assay: Relative reaction rate of enzymatic hydrolysis of chromogenic substrates, trypsin (p-nitroaniline release at 405 nm); assay type: biochemical; conditions: for Rel Reaction rates, Try (Trypsin): relative to reference substrate XIII
Text: as §1, §2, §3

Chain of Plasmin (P00747 97-810): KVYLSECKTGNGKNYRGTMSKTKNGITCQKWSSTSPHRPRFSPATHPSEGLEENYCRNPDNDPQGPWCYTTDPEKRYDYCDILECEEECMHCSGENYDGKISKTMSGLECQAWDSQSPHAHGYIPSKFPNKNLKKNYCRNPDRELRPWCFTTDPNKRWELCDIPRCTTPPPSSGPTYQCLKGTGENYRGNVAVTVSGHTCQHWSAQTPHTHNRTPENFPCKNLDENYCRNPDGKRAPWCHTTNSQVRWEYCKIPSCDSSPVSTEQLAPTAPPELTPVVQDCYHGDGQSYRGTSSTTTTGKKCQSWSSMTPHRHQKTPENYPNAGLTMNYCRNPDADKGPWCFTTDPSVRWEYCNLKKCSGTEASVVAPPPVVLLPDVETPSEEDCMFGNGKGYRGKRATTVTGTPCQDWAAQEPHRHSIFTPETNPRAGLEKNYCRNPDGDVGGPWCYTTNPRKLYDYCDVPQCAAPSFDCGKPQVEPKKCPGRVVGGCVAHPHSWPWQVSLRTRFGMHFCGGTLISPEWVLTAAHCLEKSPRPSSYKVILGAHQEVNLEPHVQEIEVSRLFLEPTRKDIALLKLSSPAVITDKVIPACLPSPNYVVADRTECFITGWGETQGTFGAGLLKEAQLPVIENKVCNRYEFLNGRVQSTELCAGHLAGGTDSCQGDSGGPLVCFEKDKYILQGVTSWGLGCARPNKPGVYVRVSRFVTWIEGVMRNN

SMILES	solubility (Solubility in buffer)	Rel Reaction rates, Pl (Plasmin) (Plasmin)	Rel Reaction rates, Kal (Kallikrein) (Kallikrein)	Rel Reaction rates, UK (Urokinase) (Urokinase)	Rel Reaction rates, T (Thrombin) (Thrombin)	Rel Reaction rates, Try (Trypsin) (Trypsin)	also measured
CC[C@H](C)[C@H](NC(=O)c1ccccc1)C(=O)N[C@@H](CC(C)C)C(=O)N[C@@H](CCCNC(=N)N)C(=O)Nc1ccc([N+](=O)[O-])cc1 [Bz-Ile-Leu-Arg-pNA] (Bz-Ile-Leu-Arg-pNA)	200 µg/mL (≈ 320 µM)	55	100				
CC[C@@H](C)[C@@H](N)C(=O)N[C@@H](CC(C)C)C(=O)N[C@@H](CCCCN)C(=O)Nc1ccc([N+](=O)[O-])cc1 [XVII, H-D-Ile-Leu-Lys-pNA . 2 HCl] (H-[dI]-Leu-Lys-pNA)	20000 µg/mL	100					
CC(C)C[C@H](NC(=O)[C@@H](NC(=O)c1ccccc1)C(C)C)C(=O)N[C@@H](CCCCN)C(=O)Nc1ccc([N+](=O)[O-])cc1 [Bz-Val-Leu-Lys-pNA] (Bz-Val-Leu-Lys-pNA)	500 µg/mL (≈ 858 µM)	100					
CC(C)C[C@H](NC(=O)[C@@H](NC(=O)c1ccccc1)C(C)C)C(=O)N[C@@H](CCCNC(=N)N)C(=O)Nc1ccc([N+](=O)[O-])cc1 [Bz-Val-Leu-Arg-pNA] (Bz-Val-Leu-Arg-pNA)	200 µg/mL (≈ 327 µM)		100				
CC[C@H](C)[C@H](N)C(=O)N[C@@H](CC(C)C)C(=O)N[C@@H](CCCCN)C(=O)Nc1ccc([N+](=O)[O-])cc1 [H-Ile-Leu-Lys-pNA] (H-Ile-Leu-Lys-pNA)		35					
CC[C@H](C)[C@H](N)C(=O)N[C@@H](CC(C)C)C(=O)N[C@@H](CCCNC(=N)N)C(=O)Nc1ccc([N+](=O)[O-])cc1 [H-Ile-Leu-Arg-pNA] (H-Ile-Leu-Arg-pNA)		10	20				
CC(C)[C@H](NC(=O)c1ccccc1)C(=O)N1CCC[C@H]1C(=O)N[C@@H](CCCNC(=N)N)C(=O)Nc1ccc([N+](=O)[O-])cc1 [Bz-Val-Pro-Arg-pNA] (Bz-Val-Pro-Arg-pNA)	300 µg/mL (≈ 504 µM)			15	6	60	
CC(C)[C@H](NC(=O)c1ccccc1)C(=O)N1CCCC[C@H]1C(=O)N[C@@H](CCCNC(=N)N)C(=O)Nc1ccc([N+](=O)[O-])cc1 [Bz-Val-Pip-Arg-pNA] (Bz-Val-[Pip]-Arg-pNA)				30	4	45	
CC(C)C[C@H](NC(=O)[C@@H](N)C(C)C)C(=O)N[C@@H](CCCCN)C(=O)Nc1ccc([N+](=O)[O-])cc1 [H-Val-Leu-Lys-pNA] (H-Val-Leu-Lys-pNA)		25					
CC(C)[C@@H](N)C(=O)N1CCCC[C@H]1C(=O)N[C@@H](CCCNC(=N)N)C(=O)Nc1ccc([N+](=O)[O-])cc1 [XIV, H-D-Val-Pip-Arg-pNA . 2 HCl] (H-[dV]-[Pip]-Arg-pNA)				100	100	70	Sensitivity (stated amount of enzyme gives the activity 0.1 nkat) (Urokinase; Urokinase, 0.1 nkat, ΔOD/min = 0.0254): 40 Ploug E; Sensitivity (stated amount of enzyme gives the activity 0.1 nkat) (Thrombin; Thrombin, 0.1 nkat, ΔOD/min = 0.0254): 0.06 INH
CC[C@@H](C)[C@@H](N)C(=O)N[C@@H](CC(C)C)C(=O)N[C@@H](CCCNC(=N)N)C(=O)Nc1ccc([N+](=O)[O-])cc1 [XV, H-D-Ile-Leu-Arg-pNA . 2 HCl] (H-[dI]-Leu-Arg-pNA)	4000 µg/mL	75	100				
CC[C@H](C)[C@H](NC(=O)c1ccccc1)C(=O)N[C@@H](CC(C)C)C(=O)N[C@@H](CCCCN)C(=O)Nc1ccc([N+](=O)[O-])cc1 [Bz-Ile-Leu-Lys-pNA] (Bz-Ile-Leu-Lys-pNA)	1000 µg/mL (≈ 1680 µM)	130					
CC(C)[C@H](N)C(=O)N1CCCC[C@H]1C(=O)N[C@@H](CCCNC(=N)N)C(=O)Nc1ccc([N+](=O)[O-])cc1 [H-Val-Pip-Arg-pNA] (H-Val-[Pip]-Arg-pNA)				45	4	35	
CC(C)C[C@H](NC(=O)[C@@H](N)C(C)C)C(=O)N[C@@H](CCCNC(=N)N)C(=O)Nc1ccc([N+](=O)[O-])cc1 [H-Val-Leu-Arg-pNA] (H-Val-Leu-Arg-pNA)			50				
CC(C)[C@@H](N)C(=O)N1CCC[C@H]1C(=O)N[C@@H](CCCNC(=N)N)C(=O)Nc1ccc([N+](=O)[O-])cc1 [XIII, H-D-Val-Pro-Arg-pNA . 2 HCl] (H-[dV]-Pro-Arg-pNA)	100000 µg/mL			95	80	100	Sensitivity (stated amount of enzyme gives the activity 0.1 nkat) (Trypsin; Trypsin, 0.1 nkat, ΔOD/min = 0.0254): 0.03 µg (Novo)
CC(C)C[C@H](NC(=O)[C@H](N)C(C)C)C(=O)N[C@@H](CCCCN)C(=O)Nc1ccc([N+](=O)[O-])cc1 [XVIII, H-D-Val-Leu-Lys-pNA . 2 HCl] (H-[dV]-Leu-Lys-pNA)	> 100000 µg/mL	100					Sensitivity (stated amount of enzyme gives the activity 0.1 nkat) (Plasmin; Plasmin, 0.1 nkat, ΔOD/min = 0.0254): 0.01 CU
CC(C)[C@H](N)C(=O)N1CCC[C@H]1C(=O)N[C@@H](CCCNC(=N)N)C(=O)Nc1ccc([N+](=O)[O-])cc1 [H-Val-Pro-Arg-pNA] (H-Val-Pro-Arg-pNA)	40000 µg/mL (≈ 81500 µM)			15	6	55	
CC(C)C[C@H](NC(=O)[C@H](N)C(C)C)C(=O)N[C@@H](CCCNC(=N)N)C(=O)Nc1ccc([N+](=O)[O-])cc1 [XVI, H-D-Val-Leu-ARg-pNA . 2 HCl] (H-[dV]-Leu-Arg-pNA)	600000 µg/mL		100				Sensitivity (stated amount of enzyme gives the activity 0.1 nkat) (Kallikrein; Kallikrein, 0.1 nkat, ΔOD/min = 0.0254): 0.2 Be
